We go through 5 compounds from patent US8937084B2, “Nitrogen containing morphinan derivatives and the use thereof” (Purdue Pharma L.P., priority 2012, dated 2015).

For test [1], the target named is T1, δ opioid receptor (Homo sapiens (Human), UniProt P41143). Briefly: δ-opioid receptor [35S]GTPγS functional assay, HEK-293 or CHO cells. The conditions noted are these: for EC50: GTPγS; for Emax: relative to met-enkephalin. Type of test: biochemical. On the procedure:
δ-Opioid Receptor Functional Assay Procedures: Functional [^35S]GTPγS binding assays were conducted as follows. 5 opioid receptor membrane solution was prepared by sequentially adding final concentrations of […] δ membrane protein (Perkin Elmer, Shelton, Conn.), 10 μg/mL saponin, 3 µM GDP and 0.20 nM [^35S]GTPγS to binding buffer (100 mM NaCl, 10 mM MgCl2, 20 mM HEPES, pH 7.4) on ice. The prepared membrane solution ([…]) was transferred to 96-shallow well polypropylene plates containing 10 μl of 20× concentrated stock solutions of agonist prepared in DMSO. Plates were incubated for 30 min at a temperature of about 25° C. with shaking. Reactions were terminated by rapid filtration onto 96-well Unifilter GF/B filter plates (Perkin Elmer, Shelton, Conn.) using a 96-well tissue harvester (Packard) and followed by three filtration washes with 200 μl ice-cold binding buffer (10 mM NaH2PO4, 10 mM Na2HPO4, pH 7.4). Filter plates were subsequently dried at 50° C. for 1-2 hours. Fifty μl/well scintillation cocktail (Perkin Elmer, Shelton, Conn.) was added and plates were counted in a Packard Top-count for 1 min/well.
δ-Oploid Receptor Functional Data: δ GTP EC50 is the concentration of a compound providing 50% of the maximal response for the compound at a δ receptor.
δ GTP Emax (%) is the maximal effect elicited by a compound relative to the effect elicited by met-enkephalin.
(§1) In TABLE 2, activity response of certain Compounds of the Invention to the μ-, δ- and κ-opioid receptors was determined as described above for functional assays using HEK-293 or CHO cells.
For orientation: GTPγS resists hydrolysis and so accumulates on activated G proteins.

Test [2] deals with recombinant human kappa opioid receptor (κ) (Homo sapiens (Human), UniProt P41145). The test is described as follows: κ-opioid receptor radioligand dose-displacement binding assay ([3H]-U69,593). On the procedure:
κ-Opioid Receptor Binding Assay Procedures: Membranes from HEK-293 cells, CHO or U-2 OS cells expressing the recombinant human kappa opioid receptor (κ) (cloned in house) were prepared by lysing cells in ice cold hypotonic buffer (2.5 mM MgCl2, 50 mM HEPES, pH 7.4) (10 mL/10 cm dish) followed by homogenization with a tissue grinder/Teflon pestle. Membranes were collected by centrifugation at 30,000×g for 15 min at 4° C. and pellets were resuspended in hypotonic buffer to a final concentration of 1-3 mg/mL. Protein concentrations were determined using the BioRad protein assay reagent with bovine serum albumen as standard. Aliquots of κ receptor membranes were stored at −80° C.
Radioligand dose displacement assays used 0.4 nM [^3H]-U69,593 (GE Healthcare, Piscataway, N.J.; 40 Ci/mmole) with 15 μg membrane protein (recombinant κ opioid receptor expressed in HEK 293 cells; in-house prep) in a final volume of 200 μl binding buffer (5% DMSO, 50 mM Trizma base, pH 7.4). Non-specific binding was determined in the presence of 10 μM unlabeled naloxone or U69,593. All reactions were performed in 96-well polypropylene plates for 1 hour at a temperature of about 25° C. Binding reactions were terminated by rapid filtration onto 96-well Unifilter GF/C filter plates (Perkin Elmer, Shelton, Conn.) presoaked in 0.5% polyethylenimine (Sigma). Harvesting was performed using a 96-well tissue harvester (Perkin Elmer, Shelton, Conn.) followed by five filtration washes with 200 μl ice-cold binding buffer. Filter plates were subsequently dried at 50° C. for 1-2 hours. Fifty μl/well scintillation cocktail (Perkin Elmer, Shelton, Conn.) was added and plates were counted in a Packard Top-Count for 1 min/well.
(§2) In TABLE 1, binding affinity of certain Compounds of the Invention to the μ-, δ- and κ-opioid receptors was determined as described above.

Test [3] deals with T1, δ opioid receptor. Briefly: δ-opioid receptor radioligand dose-displacement binding assay ([3H]-Naltrindole). Here is the method: δ-Oploid Receptor Binding Assay Procedures: δ-Opioid Receptor Binding Assay Procedures were conducted as follows. Radioligand dose-displacement assays used 0.3 nM [^3H]-Naltrindole (Perkin Elmer, Shelton, Conn.; 33.0 Ci/mmole) with 5 μg membrane protein (Perkin Elmer, Shelton, Conn.) in a final volume of 500 μl binding buffer (5 mM MgCl2, 5% DMSO, 50 mM Trizma base, pH 7.4). Non-specific binding was determined in the presence of 25 μM unlabeled naloxone. All reactions were performed in 96-deep well polypropylene plates for 1 hour at a temperature of about 25° C. Binding reactions were terminated by rapid filtration onto 96-well Unifilter GF/C filter plates (Perkin Elmer, Shelton, Conn.) presoaked in 0.5% polyethylenimine (Sigma). Harvesting was performed using a 96-well tissue harvester (Perkin Elmer, Shelton, Conn.) followed by five filtration washes with 500 μl ice-cold binding buffer. Filter plates were subsequently dried at 50° C. for 1-2 hours. Fifty μl/well scintillation cocktail (Perkin Elmer, Shelton, Conn.) was added and plates were counted in a Packard Top-Count for 1 min/well.
as §2

The target of a further test is κ opioid receptor (Homo sapiens (Human), UniProt P41145). The test is described as follows: κ-opioid receptor [35S]GTPγS functional assay, HEK-293 or CHO cells. The format is biochemical. The conditions noted are these: for EC50: GTPγS; for Emax: relative to U69,593. Here is the method:
κ-Opioid Receptor Functional Assay Procedures: Functional [^35S]GTPγS binding assays were conducted as follows. κ opioid receptor membrane solution was prepared by sequentially adding final concentrations of 0.026 μg/μl κ membrane protein (in-house), 10 μg/mL saponin, 3 μM GDP and 0.20 nM [^35S]GTPγS to binding buffer (100 mM NaCl, 10 mM MgCl2, 20 mM HEPES, pH 7.4) on ice. The prepared membrane solution (190 μl/well) was transferred to 96-shallow well polypropylene plates containing 10 μl of 20× concentrated stock solutions of agonist prepared in DMSO. Plates were incubated for 30 min at a temperature of about 25° C. with shaking. Reactions were terminated by rapid filtration onto 96-well Unifilter GF/B filter plates (Perkin Elmer, Shelton, Conn.) using a 96-well tissue harvester (Packard) and followed by three filtration washes with 200 μl ice-cold binding buffer (10 mM NaH2PO4, 10 mM Na2HPO4, pH 7.4). Filter plates were subsequently dried at 50° C. for 2-3 hours. Fifty μl/well scintillation cocktail (Perkin Elmer, Shelton, Conn.) was added and plates were counted in a Packard Top-Count for 1 min/well.
κ-Oploid Receptor Functional Data: κ GTP EC50 is the concentration of a compound providing 50% of the maximal response for the compound at a K receptor.
κ GTP Emax (%) is the maximal effect elicited by a compound relative to the effect elicited by U69,593.
as §1

T1 sequence (P41143 whole entry, looked up): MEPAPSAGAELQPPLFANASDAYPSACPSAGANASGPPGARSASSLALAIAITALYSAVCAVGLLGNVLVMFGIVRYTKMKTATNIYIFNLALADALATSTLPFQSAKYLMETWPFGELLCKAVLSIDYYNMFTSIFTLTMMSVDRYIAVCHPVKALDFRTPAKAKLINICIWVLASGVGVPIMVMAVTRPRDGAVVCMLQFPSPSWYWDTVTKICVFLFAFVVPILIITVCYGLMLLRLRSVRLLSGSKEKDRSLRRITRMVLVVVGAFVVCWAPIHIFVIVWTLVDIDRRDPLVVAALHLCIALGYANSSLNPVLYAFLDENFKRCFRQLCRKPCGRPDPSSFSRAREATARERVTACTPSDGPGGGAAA

Turning to `NC(=O)CN1C[C@H]2[C@H]3Cc4ccc(O)cc4[C@@]2(CCN3CC2CC2)CC1=O` [Compound 4, 2-((4aS,5R,10bS)— 13-(cyclopropylmethyl)-9-hydroxy-2-oxo-4,4-a,5,6-tetrahydro-1H-5,10b-(epiminoethano)benzo[f]isoquinolin-3(2H)-yl)acetamide], the EC50 turned out to be 9.06 ± 0.94 nM on δ opioid receptor [1] and 80.8 ± 5.95 nM on κ opioid receptor. Besides, the maximum response (Emax) at δ opioid receptor [1] was 109 ± 3.28%; at κ opioid receptor, 62%. For the same compound, the values for the inhibition constant (Ki) (in test [2]; on δ opioid receptor [3]) were 0.55 ± 0.08 nM and 49 ± 17.7 nM, respectively.
Consider `O=C1C[C@]23CCN(CC4CC4)[C@H](Cc4ccc(O)cc42)[C@@H]3CN1Cc1ccc(O)cc1` [Compound 5, (4aS,5R,10bS)-13-(cyclopropylmethyl)-9-hydroxy-3-(4-hydroxybenzyl)-4,4-a,5,6-tetrahydro-1H-5,10b-(epiminoethano)benzo[f]isoquinolin-2(3H)-one], for which the EC50 stood at 4.39 ± 0.93 nM at δ opioid receptor [1] and 102 ± 19.9 nM at κ opioid receptor. The values for the Emax at δ opioid receptor [1] and at κ opioid receptor were 71 ± 6.08% and 42%, respectively. For the same compound, the results for the inhibitory constant (Ki) (in test [2]; at δ opioid receptor [3]) were 6.27 ± 1.45 nM and 22.9 ± 8.53 nM, respectively.
With `O=C1C[C@]23CCN(CC4CC4)[C@H](Cc4ccc(O)cc42)[C@@H]3CN1` [Compound 7, (4aS,5R,10bS)-13-(cyclopropylmethyl)-9-hydroxy-4,4-a,5,6-tetrahydro-1H-5,10b-(epiminoethano)benzo[f]isoquinolin-2(3H)-one], the EC50 is 8.7 ± 1.25 nM on δ opioid receptor [1] and 5.1 ± 1.62 nM at κ opioid receptor. Further, the Emax is 85.7 ± 6.89% at δ opioid receptor [1] and 74.7% on κ opioid receptor. Moreover, the Ki in test [2] came to 0.18 ± 0.02 nM; at δ opioid receptor [3], 15 ± 3.45 nM.
Consider `O=C(O)CN1C[C@H]2[C@H]3Cc4ccc(O)cc4[C@@]2(CCN3CC2CC2)CC1=O` [Compound 8, 2-((4aS,5R,10bS)-13-(cyclopropylmethyl)-9-hydroxy-2-oxo-4,4-a,5,6-tetrahydro-1H-5,10b-(epiminoethano)benzo[f]isoquinolin-3(2H)-yl)acetic acid], for which the EC50 was 2.41 ± 0.29 nM on δ opioid receptor [1] and 14.9 ± 2.71 nM on κ opioid receptor. The Emax on δ opioid receptor [1] was found to be 110 ± 3.11%; on κ opioid receptor it was 66%. The inhibition constant (Ki) in test [2] was 4.03 ± 0.07 nM; on δ opioid receptor [3] it was 82.2 ± 30.1 nM.
As to `Oc1ccc2c(c1)[C@@]13CCNC[C@H]1[C@@H](C2)N(CC1CC1)CC3` [Compound 13, (4aS,5R,10bR)-13-(cyclopropylmethyl)-2,3,4,4a,5,6-hexahydro-1H-5,10b-(epiminoethano)benzo[f]isoquinolin-9-ol], the half-maximal effective concentration (EC50) on δ opioid receptor [1] was 36.5 ± 11.1 nM; at κ opioid receptor it was 29.5 ± 14.8 nM. The Emax is 83.3 ± 1.45% on δ opioid receptor [1] and 78.3% at κ opioid receptor. Further, the inhibition constant Ki in test [2] worked out at 0.21 ± 0.04 nM; at δ opioid receptor [3], 174 ± 33.7 nM.

Usually EC50 stands for the concentration needed to bring the measured effect to its halfway point. A lower EC50 goes with an effect from little substance. The Emax is the greatest response seen or fitted, relative to the assay's reference. The Ki is a dissociation constant, usually derived from enzyme kinetics or from competition with a known ligand.
